The structures appear in SMILES notation. Several values for one entry are separate records, joined by “and”; a condition that tells them apart may be missing. Identical values can stand only once. Entries after “also recorded” stand apart in the source; their conditions may differ. Where only a bound is given, the exact number is not on record here.

Broadly, the IC50 is the midpoint of a concentration-inhibition curve.

One data set deals with BACE1 (Homo sapiens, UniProt P56817). Description: P5-P5′ BACE1 inhibition assay. Format: biochemical. The conditions noted are these: cell-free; read-out: BACE1 IC50 (P5-P5′ assay; BACE1-APP).
In the next data set the target is T1, BACE2 (Homo sapiens, UniProt Q9Y5Z0).
T1 construct: purchased R&D Systems 4097-AS
T1 sequence (Q9Y5Z0 63-518): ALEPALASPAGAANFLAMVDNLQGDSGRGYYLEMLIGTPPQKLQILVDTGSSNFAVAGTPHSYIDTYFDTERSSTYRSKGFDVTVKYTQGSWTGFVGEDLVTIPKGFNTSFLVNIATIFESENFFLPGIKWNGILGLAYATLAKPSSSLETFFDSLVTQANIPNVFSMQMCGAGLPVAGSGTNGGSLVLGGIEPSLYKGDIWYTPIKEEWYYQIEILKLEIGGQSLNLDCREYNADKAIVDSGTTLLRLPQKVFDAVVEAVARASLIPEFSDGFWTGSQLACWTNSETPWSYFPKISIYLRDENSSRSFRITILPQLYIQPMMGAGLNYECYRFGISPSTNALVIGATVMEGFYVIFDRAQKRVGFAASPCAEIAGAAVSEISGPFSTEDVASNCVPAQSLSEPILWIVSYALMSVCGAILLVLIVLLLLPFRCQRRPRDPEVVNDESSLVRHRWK
In words: BACE2 activity assay. Format: biochemical. The procedure: The effects of candidate ASBIs on BACE2 activity was assessed using the R&D Systems BACE2 activity assay kit (Catalog #: 4097-AS and ES010) formatted from to the manufacturers. For the assay, 4 μL of assay buffer was added to each well, followed by 2 μL of BACE2 diluted in assay buffer to 10 ng/µL.
Then, 2 μL of inhibitor, at the appropriate concentrations were added to the wells and incubated for 30 minutes at room temperature. For all dilutions of inhibitor, drug stock solutions of 10 mM in DMSO were diluted to 50 μM in water; subsequent dilutions were in 0.5% DMSO. Afterwards, 2 μL of fluorogenic BACE2 substrate, diluted to 50 μM in assay buffer, were added to each well, after which the signal generated was read every 30 minutes at 25 °C for 2 hr (Fig S2).
FAH65 and its enantiomers at 10 mM in 100% DMSO was diluted in PBS pH 7.4 to 100, 10, 1, and 0.1 µM; plus, a vehicle-only control. The solutions were incubated at 37 °C for 90 min and centrifuged at 16K x g for 5 min. An aliquot of each supernatant was analyzed by LC-MS/MS. A standard curve was generated by plotting the known amount of analyte per standard in DMSO vs. chromatographic peak […]
Kinetic solubility (µM) was calculated using the trendline equation with maximum chromatographic peak area observed in the aqueous sample. (Table S3)
Liver microsome stability assay […]

Data set [1] has as its target T2, human serum albumin (HSA) (Homo sapiens, UniProt P02768).
T2 construct: purchased Chiral Technologies H15L-109
In words: Human serum albumin (HSA) binding assay. Format: in vitro ADME. The procedure:
Human serum albumin (HSA) binding assay
The liquid chromatography-ultraviolet/visible spectroscopy (LC-UV/Vis) assay was performed on a 1290 Infinity HPLC system (Agilent Technologies) with an HPLC column containing immobilized HSA
([…]® CAN, Chiral Technologies, Cat#H15L-109, 5 µm 50 x 4 mm). The HPLC method utilized an isocratic gradient containing 100% 6.7 mM phosphate buffer saline (pH 7.4). The retention time of the compound (tr) and injection peak were recorded.
The percent protein binding (P) was calculated using the following equations:
K’ = (tr – tm) / tm; P = 100 x [K’ / (K’ + 1)] […]
The […]
KIAM = (tr – t0) / t0; Pm = (KIAM / MW4) x 1010
Compounds with a Pm >0.85 are predicted to be BBB permeable (CNS+) at pH 7.4.
Brain Tissue Binding Assay […]
Cat#23235). Brain homogenate was diluted to 20 mg/mL in PBS (pH 7.4) and added to Slide-A-Lyzer™ MINI Dialysis Devices, 10K MWCO dialysis cups (Thermo Fisher Scientific, Cat#PI88401) in a 48-well plate containing PBS (500 µL; pH 7.4). 1 µL of 1 mM compound was added to the brain homogenate (final concentration: 2 µM compound, 0.5% DMSO) and incubated on a rocker for 4.5 hours at 37 °C. 50 µL of brain homogenate (within the dialysis cup) and PBS (within the 48-well plate) were transferred to new microcentrifuge tubes containing 200 µL of quenching reagent (100% acetonitrile) containing internal […]
standard. […]

Sequence of BACE1 (P56817 46-501): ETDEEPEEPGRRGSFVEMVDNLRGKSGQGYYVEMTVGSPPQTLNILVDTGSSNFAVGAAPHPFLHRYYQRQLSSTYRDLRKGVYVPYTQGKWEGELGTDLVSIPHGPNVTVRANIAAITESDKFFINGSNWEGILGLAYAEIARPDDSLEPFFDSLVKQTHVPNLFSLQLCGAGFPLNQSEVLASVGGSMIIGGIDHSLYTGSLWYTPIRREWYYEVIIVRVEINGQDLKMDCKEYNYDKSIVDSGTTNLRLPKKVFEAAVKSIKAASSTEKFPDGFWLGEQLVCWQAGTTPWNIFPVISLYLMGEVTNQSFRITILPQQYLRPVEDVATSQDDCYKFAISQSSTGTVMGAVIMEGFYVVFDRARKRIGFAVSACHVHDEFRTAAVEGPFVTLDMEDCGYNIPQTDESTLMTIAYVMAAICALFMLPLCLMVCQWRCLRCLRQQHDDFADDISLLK
T2 sequence (P02768 25-609): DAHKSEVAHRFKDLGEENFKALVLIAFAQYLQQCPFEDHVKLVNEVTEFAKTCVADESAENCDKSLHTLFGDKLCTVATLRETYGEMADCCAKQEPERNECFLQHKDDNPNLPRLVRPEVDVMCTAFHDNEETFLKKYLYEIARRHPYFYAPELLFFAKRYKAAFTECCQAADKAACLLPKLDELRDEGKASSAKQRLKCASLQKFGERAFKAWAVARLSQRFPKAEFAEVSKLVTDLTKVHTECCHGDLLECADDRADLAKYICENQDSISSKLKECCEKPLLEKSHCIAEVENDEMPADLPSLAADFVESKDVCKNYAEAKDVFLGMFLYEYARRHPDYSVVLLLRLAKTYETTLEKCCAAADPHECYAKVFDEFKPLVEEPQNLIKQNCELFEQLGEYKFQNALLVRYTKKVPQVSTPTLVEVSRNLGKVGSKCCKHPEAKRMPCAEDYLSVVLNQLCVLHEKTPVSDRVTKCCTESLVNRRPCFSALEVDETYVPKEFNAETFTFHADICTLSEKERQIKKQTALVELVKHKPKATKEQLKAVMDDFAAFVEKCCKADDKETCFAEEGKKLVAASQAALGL
Description for BACE1: For the P5-P5′ BACE1 inhibition assay, 4 ​μL of assay buffer was added to each well, followed by 2 ​μL of BACE1 diluted in assay buffer to 7.5 ​ng/μL. Then, 2 ​μL of inhibitor, at concentrations along an 11 ​pt. two-fold dilution series starting at 10 ​μM, or 0.5 ​μM, were added to appropriate wells and incubated for 30 ​min at room temperature. For all dilutions of inhibitor, drug stock solutions of 10 ​mM in DMSO were diluted to 50 ​μM in water; subsequent dilutions were in 0.5 ​% DMSO. Afterwards, 2 ​μL of fluorogenic P5-P5′ BACE1 substrate, diluted to 50 ​μM in assay buffer, were added to each well and the signal generated was read every 30 ​min at 25 ​°C for 2 ​h.

In the case of `Cc1cc(C2(c3cccc(-c4cncnc4)c3)N=C(N)N(C)C2=O)ccc1OC(F)F` (stereo not shown) [FAH65], the IC50 on BACE1 was 7 nM and 10 to 30 nM and 10 nM and ~10 nM; against BACE2, over 1000 nM. The “inhibition of BACE2 activity” value on BACE2 (in words) was “no inhibition; also recorded: did not inhibit”. Further, the “Plasma (HSA) binding, funbound” value in data set [1] is on record as 0.44%.

Source of the values: publication PMC12491701, “Discovery of an APP-selective BACE1 inhibitor for Alzheimer's disease” (Neurotherapeutics, 2025).
